Reference: patent US7217805B2, “Bicyclonucleoside analogues” (Sankyo Company, Limited, priority 1999, dated 2007)
[3'-NH2-LNA] = 3'-amino-3'-deoxy-2'-O,4'-C-methylene-5-methyluridine; d = 2'-deoxy (DNA)

System: double stranded DNA with the sequence of 5′-gctaaaaagaaagagagatcg-3′ (SEQ ID NO: 3) and its complementary strand 5′-cgatctctctttctttttagc-3′ (SEQ ID NO: 4)
Test: Measurement of Tm for determination of activity of triplet formation
Type: binding
Conditions: 7 mM sodium phosphate buffer pH 7.0, 140 mM KCl, 1.5 μM each nucleotide, UV 260 nm

Substance | Tm (With MgCl2 (10 mM)) [°C] | Tm (Without MgCl2) [°C]
Oligonucleotide (2): 5′-tttttmtntmtmtmt-3′ (SEQ ID NO: 2), m is 5-methyl 2′-deoxycytidine, n is 3′-amino-3′-deoxy-2′-O,4′-C-methylene-5-methyluridine (TTTTTCTTTCTCTCT; sugars from the 5' end d7 [3'-NH2-LNA]1 d7, all C 5-methyl, backbone not given here; triplex-forming oligonucleotide, further chemistry not fully specified) | 55 | 44
Oligonucleotide (3): natural oligonucleotide which forms a triplet, 5′tttttmtttmtmtmt-3′ (SEQ ID NO: 5), m is 5-methyl-2′deoxycytidine (TTTTTNTTTNTNTNT; 5-methyl-2'-deoxycytidine, chemistry not fully specified) | 44 | 32
